Source: PubChem BioAssay (NCI)
Where “and” joins values, the source holds several entries; their conditions need not be identical. Equal entries are not always repeated.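 Assay format: 96-well plates, 48-hour exposure. Here, GI50 denotes the concentration required for 50% inhibition of growth. TGI denotes the concentration required for complete inhibition of growth.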

What was measured:
Test in all cases: NCI tumour cell line growth inhibition, 48 h
DU-145 prostate = test system: DU-145 prostate
A498 renal = test system: A498 renal
UACC-62 melanoma = test system: UACC-62 melanoma
SK-MEL-2 melanoma = test system: SK-MEL-2 melanoma
NCI/ADR-RES ovarian = test system: NCI/ADR-RES ovarian
NCI-H23 lung = test system: NCI-H23 lung
LOX IMVI melanoma = test system: LOX IMVI melanoma
SNB-19 CNS = test system: SNB-19 CNS
RXF 393 renal = test system: RXF 393 renal
OVCAR-3 ovarian = test system: OVCAR-3 ovarian

Structure (SMILES) | GI50 (DU-145 prostate) [µM] | TGI (DU-145 prostate) | GI50 (A498 renal) [µM] | TGI (A498 renal) [µM] | GI50 (UACC-62 melanoma) [µM] | TGI (UACC-62 melanoma) | GI50 (SK-MEL-2 melanoma) [µM] | TGI (SK-MEL-2 melanoma) | GI50 (NCI/ADR-RES ovarian) [µM] | TGI (NCI/ADR-RES ovarian) [µM] | GI50 (NCI-H23 lung) [µM] | TGI (NCI-H23 lung) | GI50 (LOX IMVI melanoma) [µM] | TGI (LOX IMVI melanoma) [µM] | GI50 (SNB-19 CNS) [µM] | TGI (SNB-19 CNS) [µM] | GI50 (RXF 393 renal) [µM] | TGI (RXF 393 renal) [µM] | GI50 (OVCAR-3 ovarian) [µM] | TGI (OVCAR-3 ovarian)
CC[C@H]1CCC/C=C/[C@@H]2C[C@H](O)C[C@H]2[C@H](O)/C=C/C(=O)O1 | 0.179 | > 100 µM | 0.0174 | 0.0596 | 0.0384 | > 37.7 µM | 0.0337 | 0.198 µM | 0.0379 | > 45.3 | 0.0414 | 5.23 µM | 0.0251 | 0.0793 | 0.0607 | > 100 | 0.016 | 0.0379 | 0.0281 | 0.104 µM
Cc1ccc2[nH]c(O)c(N=Nc3ccccc3[N+](=O)[O-])c2c1 |  | > 100 µM |  | 34.6 |  | > 100 µM |  | > 100 µM |  | > 40.2 |  | 77.1 µM |  | > 100 |  | > 81.1 |  | 20.8 |  | 99.6 µM
COC(=O)C1=C(C(=O)ON)[C@@H]2C=C[C@@]1([C@@H](Cc1ccccc1)Nc1ccccc1)O2 | 1.84 | 3.67 µM | 12.3 | 24.8 | 6.37 | 19.3 µM | 15.6 | 30 µM | 17.4 | 35.9 | 14.1 | 28.9 µM | 1.5 | 2.88 | 16 | 29.5 | 1.67 | 3.04 | 1.57 | 3 µM
CN[C@@H](Cc1cccc2ccccc12)C(=O)N[C@@H](CC(C)C)B(O)O | 0.0515 | 0.219 µM and 0.315 µM | 0.00553 | 0.0452 | 0.017 | 0.0344 µM and < 0.0154 µM | 0.0237 | 0.0599 µM and 0.104 µM | 0.0412 | 0.197 | 0.016 | 0.0387 µM and < 0.0114 µM | 0.0135 | 0.0324 | 0.0356 |  | 0.018 | 0.0353 | 0.0158 | 0.037 µM and < 0.0147 µM
O=c1cc(-c2ccccc2)oc2c1ccc1ccccc12 | 30.6 | > 100 µM | 11.1 | 44.1 | 12.3 | > 100 µM | 74.7 | > 100 µM | 30.5 | > 100 | 32.6 | > 100 µM | 21.9 | > 100 | 6.1 | > 100 | 24.1 | 64.4 | 30.9 | > 100 µM
S=C1SCN(Cc2ccccc2)CN1Cc1ccccc1 | 2.69 | 9.18 µM | 15.5 | 43.6 | 5.05 | 16.9 µM | 7.53 | 25.3 µM | 33.1 | > 100 | 12.1 | 42.9 µM | 3 | 15 | > 54.7 | > 100 | 1.55 | 6.32 | 2.49 | 9.09 µM
CCc1cccc(NC(=O)Nc2ccc(Oc3ccc4nc(NC(=O)OC)[nH]c4c3)cc2)c1 | 4.94 | > 15.4 µM | 3.2 | 17.8 | 1.93 | 10.1 µM | 2.94 | 12.3 µM | 10.5 | > 25 | 5.59 | > 20.8 µM | 3.77 | > 17.3 | 10.1 | > 25 | 2.05 | 10.9 | 3.65 | 10 µM
CC[C@]12C=CCN3CC[C@@]4(c5ccc(OC)cc5N(C)[C@H]4[C@@](O)(C(=O)OC)[C@@H]1OC(=O)CCC(=O)O[C@H]1CC[C@H]4[C@@H]5CC[C@H]6CC(=O)CC[C@]6(C)[C@H]5CC[C@]14C)[C@@H]32 | 3.66 | 61.2 µM | 4.13 | 30.8 | 3.25 | > 100 µM | 2.49 | 6.18 µM | 2.91 | > 100 | 3.54 | > 100 µM | 2.83 | 11.7 | 4.85 | > 100 | 2.31 | 6.73 | 3.05 | > 100 µM
COc1ccc(-c2cc(-c3ccc(OC)cc3)nc(NCCCNc3ccnc4cc(Cl)ccc34)n2)cc1 | 1.88 | 3.38 µM | 5.32 | 18.3 | 2.76 | 7.26 µM | 14 | 28.4 µM | 1.62 | 3.28 | 1.8 | 3.72 µM | 1.79 | 3.25 | 1.96 | 3.99 | 1.32 | 2.74 | 1.7 | 3.14 µM
CC1(C)CCc2c(c(N=Nc3ccccc3F)c3ccccc3c2O)O1 | 87.5 | > 100 µM | 25.9 | > 100 | > 100 | > 100 µM | > 100 | > 100 µM | 20.1 | 47.1 | 16.8 | 58.6 µM | 20.9 | 40.9 | 36.8 | > 100 | 79 | > 100 | 20.5 | 51.2 µM
CCN(CC)CCn1c(=O)c2cc(OC)c(OC)cc2c2ccc3cc4c(cc3c21)OCO4 | 0.321 | 6.93 µM | 0.15 | 0.655 | 0.163 | 14.8 µM | > 100 | > 100 µM | 0.42 | 43.9 | 0.348 | 11.6 µM | 0.139 | 0.584 | 0.367 | 27.2 | 0.448 | 17.2 | 7.57 | 25.5 µM
O=C1c2ccccc2C(=O)c2c1oc1c2c(=O)[nH]c2ccc(Cl)cc21 | 0.279 | 0.781 µM | 0.214 | 0.959 | 0.285 | 1.15 µM | 1.75 | 5.18 µM | 0.354 | 1.77 | 0.355 | 1.83 µM | 0.321 | 1.3 | 0.312 | 1.1 | 0.21 | 0.577 | 0.239 | 0.557 µM
Cc1cc(=O)oc2cc3oc(N(C)c4ccccc4)nc(=O)c3cc12 |  | > 100 µM |  | > 100 |  | > 100 µM |  | > 100 µM |  | > 100 |  | > 100 µM |  | > 100 |  | > 100 |  | > 100 |  | > 100 µM
C#CCOC(=O)/C=C/C(=O)Oc1ccc2c(C)cc(=O)oc2c1 | > 100 | > 100 µM | > 100 | > 100 | > 100 | > 100 µM | > 100 | > 100 µM | > 100 | > 100 | > 100 | > 100 µM | > 100 | > 100 | > 100 | > 100 | > 100 | > 100 | > 100 | > 100 µM
CCCCc1n(Cc2ccc3ccccc3n2)cc[n+]1Cc1ccc2ccccc2n1 | 3.27 | 16.2 µM | 3.01 | 12.9 | 0.749 | 3.56 µM | 1.43 | 5.58 µM | > 100 | > 100 | 0.499 | 8.54 µM | 1.52 | 4.67 | 0.826 | 12.9 | 4.17 | 16.5 | 0.698 | 10.7 µM
C/C(CC(C)(C)N1CC1)=N\NC(=O)Nc1cccc2ccccc12 | 3.07 | 9.85 µM | 2.55 | 9.5 | 4.06 | 15.8 µM | 2.24 | 5.45 µM | 3.67 | 22.4 | 3.78 | 21.3 µM | 3.13 | 13.3 | 5.14 | 18.1 | 2.08 | 5.46 | 2.32 | 5.92 µM
O=S(=O)(O)n1ccnc1 (tested in a mixture with another compound) |  | > 100 µM |  | > 100 |  | > 100 µM |  | > 100 µM |  | > 100 |  | > 100 µM |  | > 100 |  | > 100 |  | > 100 |  | > 100 µM
Fc1ccc(-c2ncn(CCCN3CCOCC3)c2-c2ccncc2)cc1 | > 25 | > 25 µM | > 25 | > 25 | > 25 | > 25 µM | > 25 | > 25 µM | > 25 | > 25 | > 25 | > 25 µM | > 25 | > 25 | > 25 | > 25 | > 25 | > 25 | > 25 | > 25 µM
CC(C)=Cc1cccc2[nH]c(O)c(N=Nc3ccc(S(N)(=O)=O)cc3)c12 | 5.09 | > 25 µM | > 25 | > 25 | > 25 | > 25 µM | > 25 | > 25 µM | > 23.4 | > 25 | 7.25 | > 25 µM | 2.67 | > 25 | > 14.6 | > 25 | 0.987 | > 19.4 | 11.5 | > 25 µM
CC(=O)Nc1ccc(OC(C)=O)cc1 | < 0.0105 | 0.0172 µM | < 0.01 | 0.0488 | < 0.01 | 12.7 µM | < 0.01 | 8.54 µM | < 0.0105 | > 7.41 | < 0.01 | 60.3 µM | < 0.01 | 4.14 | < 0.0126 | > 100 | < 0.01 | 6.3 | < 0.01 | < 0.0134 µM
